Results on 14 compounds are retold here after patent publication US7427625B2, “Substituted thiatriazaacenaphthylene-6-carbonitrile kinase inhibitors” (Janssen Pharmaceutica, N.V., priority 2006, dated 2008).

Structures are written as SMILES.

One assay concerns the target T1, Aurora-A (Mus musculus, UniProt P97477).
T1 construct: followed by the full length protein encoding the murine Aurora-A; polyhistidine (N); made in house; host or cells: sf9 insect cells
T1 sequence (P97477 1-395): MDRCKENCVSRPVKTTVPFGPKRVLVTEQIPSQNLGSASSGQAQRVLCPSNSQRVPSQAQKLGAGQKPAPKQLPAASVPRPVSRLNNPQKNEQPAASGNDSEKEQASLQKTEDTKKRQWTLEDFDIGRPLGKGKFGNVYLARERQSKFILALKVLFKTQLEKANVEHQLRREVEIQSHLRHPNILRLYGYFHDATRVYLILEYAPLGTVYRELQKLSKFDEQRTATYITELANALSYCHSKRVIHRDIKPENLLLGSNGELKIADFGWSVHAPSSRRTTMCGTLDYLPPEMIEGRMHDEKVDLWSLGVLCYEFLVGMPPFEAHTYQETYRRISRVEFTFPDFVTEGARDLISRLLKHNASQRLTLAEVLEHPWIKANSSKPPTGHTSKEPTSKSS
The assay is described as follows: Aurora-A Screening Assay. The class given is biochemical, murine.

The next assay deals with T2, VEGF-R2 (Rattus norvegicus, UniProt O08775).
T2 construct: polyhistidine (N)
The assay is described as follows: VEGF-R2 Screening Assay. The class given is biochemical.

Another assay concerns the target T3, Lyn kinase (Homo sapiens, UniProt P07948).
T3 construct: purchased Upstate Biotechnology, Lake Placid, N.Y
The assay is described as follows: Lyn Kinase Assay. It is filed as biochemical. The following applies: for inhibition at 2 µM: test concentration of 2 μM, read-out: Lyn percent inhibition. As for the experimental part: A mixture of a 10× kinase buffer (500 mM MOPS at pH 7.5, 1 mM EGTA, 1 mM Sodium Vanadate, 1% β-mercaptoethanol and 100 mM Magnesium Acetate), ATP (5 μM final from a 10 mM stock), polyGluTyr (0.1 mg/mL final from a 1 mg/mL stock), γ-^33P ATP (10 μCi/μL stock) and water (20 μL/well) was added to each well of a Streptavidin Flashplate.
Test compound in 100% DMSO (0.5 μL) was added to the appropriate wells. Diluted Lyn kinase (human) (Upstate Biotechnology, Lake Placid, N.Y.) (diluted in a buffer consisting of 50 mM Tris at pH 7.5, 0.1 mM EGTA, Sodium Vanadate (0.1 mM), β-mercaptoethanol (0.1%) and 1 mg/mL bovine serum albumin) (2.5 μL) was added to the wells to initiate the reactions.
The reaction plates were incubated at 30° C. for 40 min. The reaction was terminated by the addition of a 3% phosphoric acid solution (5 μL). The reaction product (10 μL) was spotted onto a P30 filtermat and washed for 5 minutes in phosphoric acid (75 mM). The wash sequence was repeated two more times, followed with one final wash in methanol. The plates were then dried, sealed and read on the TopCount scintillation counter after adding 30 μL scintillation fluid.
Percent inhibition was derived according to the procedure described in Example 2. For those compounds without an IC50, the percent inhibition results are shown at a test concentration of 2 μM.

T2 sequence (O08775 786-1343): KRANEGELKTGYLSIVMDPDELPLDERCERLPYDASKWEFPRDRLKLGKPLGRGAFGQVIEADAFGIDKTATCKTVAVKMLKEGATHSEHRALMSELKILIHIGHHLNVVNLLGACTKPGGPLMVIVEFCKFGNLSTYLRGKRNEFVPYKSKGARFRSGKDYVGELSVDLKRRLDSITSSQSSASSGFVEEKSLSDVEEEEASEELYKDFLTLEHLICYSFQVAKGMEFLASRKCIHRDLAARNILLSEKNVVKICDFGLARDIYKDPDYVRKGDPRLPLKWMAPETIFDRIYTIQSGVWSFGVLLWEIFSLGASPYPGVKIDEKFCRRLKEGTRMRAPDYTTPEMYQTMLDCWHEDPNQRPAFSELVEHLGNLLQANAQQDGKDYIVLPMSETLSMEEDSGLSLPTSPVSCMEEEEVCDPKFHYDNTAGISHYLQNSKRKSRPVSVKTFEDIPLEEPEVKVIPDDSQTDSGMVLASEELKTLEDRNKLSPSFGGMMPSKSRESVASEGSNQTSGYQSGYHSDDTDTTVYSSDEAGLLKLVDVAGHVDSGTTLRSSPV
T3 sequence (P07948 whole entry): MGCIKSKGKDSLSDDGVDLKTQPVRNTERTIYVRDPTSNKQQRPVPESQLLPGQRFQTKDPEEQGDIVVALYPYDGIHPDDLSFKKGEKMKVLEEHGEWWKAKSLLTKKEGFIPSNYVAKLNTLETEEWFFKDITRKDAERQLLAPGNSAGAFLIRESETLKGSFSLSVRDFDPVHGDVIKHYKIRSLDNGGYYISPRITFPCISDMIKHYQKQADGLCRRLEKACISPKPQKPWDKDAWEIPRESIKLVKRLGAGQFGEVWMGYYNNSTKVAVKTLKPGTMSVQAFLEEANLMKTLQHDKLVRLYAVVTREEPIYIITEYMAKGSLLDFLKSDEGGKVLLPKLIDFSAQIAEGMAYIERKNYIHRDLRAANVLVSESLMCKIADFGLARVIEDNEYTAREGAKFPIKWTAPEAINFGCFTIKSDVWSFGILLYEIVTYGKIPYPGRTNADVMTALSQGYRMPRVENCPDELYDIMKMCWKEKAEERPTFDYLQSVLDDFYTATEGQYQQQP

For orientation: IC50 means the concentration at which inhibition is half-maximal. A lower IC50 goes with higher potency. One may read the inhibition as the drop in the measured response relative to a control, in per cent. On to `N#Cc1c(N2CCOCC2)nc2sc(C(=O)Nc3ccc(CN4CCOCC4)cc3)c3c2c1N(c1c(Cl)ccc2c1OCO2)C(=O)N3` [Cpd 8, 5-(5-chloro-benzo[1,3]dioxol-4-yl)-6-cyano-7-morpholin-4-yl-4-oxo-4,5-dihydro-3H-1-thia-3,5,8-triaza-acenaphthylene-2-carboxylic acid (4-morpholin-4-ylmethyl-phenyl)-amide], for which the IC50 stood at 6.47 µM on Aurora-A and 14.1 µM against VEGF-R2. For the same compound, the inhibition at 2 µM at Lyn kinase stood at 40%.

Take `N#Cc1cnc2sc(C(=O)Nc3ccc(CN4CCOCC4)cc3)c3c2c1N(c1c(Cl)ccc2c1OCO2)C(=O)N3` [Cpd 4, 5-(5-chloro-benzo[1,3]dioxol-4-yl)-6-cyano-4-oxo-4,5-dihydro-3H-1-thia-3,5,8-triaza-acenaphthylene-2-carboxylic acid (4-morpholin-4-ylmethyl-phenyl)-amide]: the IC50 against Aurora-A was 10.6 µM; against VEGF-R2, greater than 10 µM; at Lyn kinase, 0.477 µM.

Take `CCOC(=O)c1sc2nc(-c3cc(F)ccc3Cl)c(C#N)c3c2c1NC(=O)N3c1ccncc1` [Cpd 15, 7-(2-chloro-5-fluoro-phenyl)-6-cyano-4-oxo-5-pyridin-4-yl-4,5-dihydro-3H-1-thia-3,5,8-triaza-acenaphthylene-2-carboxylic acid ethyl ester]: the IC50 against Aurora-A and against VEGF-R2 was greater than 100 µM in each case.

As to `CN1CCN(CCc2ccc(NC(=O)c3sc4ncc(C#N)c5c4c3NC(=O)N5c3c(Cl)ccc4c3OCO4)cc2)CC1` [Cpd 12, 5-(5-chloro-benzo[1,3]dioxol-4-yl)-6-cyano-4-oxo-4,5-dihydro-3H-1-thia-3,5,8-triaza-acenaphthylene-2-carboxylic acid {4-[2-(4-methyl-piperazin-1-yl)-ethyl]-phenyl}-amide], the IC50 was roughly 10 µM against Aurora-A and greater than 100 µM on VEGF-R2. In addition, the inhibition at 2 µM on Lyn kinase was determined as 93%.

For the compound `N#Cc1cnc2sc(C(=O)Nc3ccc(CCN4CCCCC4)cc3)c3c2c1N(c1c(Cl)ccc2c1OCO2)C(=O)N3` [Cpd 11, 5-(5-chloro-benzo[1,3]dioxol-4-yl)-6-cyano-4-oxo-4,5-dihydro-3H-1-thia-3,5,8-triaza-acenaphthylene-2-carboxylic acid [4-(2-piperidin-1-yl-ethyl)-phenyl]-amide], the IC50 on Aurora-A is greater than 1 µM; on VEGF-R2, greater than 100 µM; on Lyn kinase, 0.113 µM.

With `CN1CCC(NC(=O)c2sc3ncc(C#N)c4c3c2NC(=O)N4c2c(Cl)ccc3c2OCO3)CC1` [Cpd 10, 5-(5-chloro-benzo[1,3]dioxol-4-yl)-6-cyano-4-oxo-4,5-dihydro-3H-1-thia-3,5,8-triaza-acenaphthylene-2-carboxylic acid (1-methyl-piperidin-4-yl)-amide], the IC50 is 13.3 µM against Aurora-A, roughly 100 µM against VEGF-R2 and 0.268 µM at Lyn kinase.

Consider `N#Cc1cnc2sc(C(=O)Nc3ccc(CCN4CCOCC4)cc3)c3c2c1N(c1c(Cl)ccc2c1OCO2)C(=O)N3` [Cpd 13, 5-(5-chloro-benzo[1,3]dioxol-4-yl)-6-cyano-4-oxo-4,5-dihydro-3H-1-thia-3,5,8-triaza-acenaphthylene-2-carboxylic acid [4-(2-morpholin-4-yl-ethyl)-phenyl]-amide], for which the IC50 was 5.93 µM on Aurora-A and greater than 10 µM against VEGF-R2. In addition, the inhibition at 2 µM at Lyn kinase amounted to 76%.

In the case of `COc1cc(N2C(=O)Nc3c(C(=O)Nc4ccc(CN5CCOCC5)cc4)sc4ncc(C#N)c2c34)c(Cl)cc1Cl` [Cpd 5, 6-cyano-5-(2,4-dichloro-5-methoxy-phenyl)-4-oxo-4,5-dihydro-3H-1-thia-3,5,8-triaza-acenaphthylene-2-carboxylic acid (4-morpholin-4-ylmethyl-phenyl)-amide], the IC50 is greater than 10 µM on Aurora-A and greater than 100 µM on VEGF-R2. The inhibition at 2 µM on Lyn kinase came to 83%.

As for `CCOC(=O)c1sc2nc(N3CCOCC3)c(C#N)c3c2c1NC(=O)N3c1c(Cl)ccc2c1OCO2` [Cpd 7, 5-(5-chloro-benzo[1,3]dioxol-4-yl)-6-cyano-7-morpholin-4-yl-4-oxo-4,5-dihydro-3H-1-thia-3,5,8-triaza-acenaphthylene-2-carboxylic acid ethyl ester], the IC50 at Aurora-A was greater than 10 µM; against VEGF-R2, greater than 100 µM. In addition, the inhibition at 2 µM at Lyn kinase was determined as 43%.

In the case of `CCOC(=O)c1sc2nc(O)c(C#N)c3c2c1NC(=O)N3c1ccncc1` [Cpd 14, 6-cyano-7-hydroxy-4-oxo-5-pyridin-4-yl-4,5-dihydro-3H-1-thia-3,5,8-triaza-acenaphthylene-2-carboxylic acid ethyl ester], the IC50 against Aurora-A and at VEGF-R2 was greater than 100 µM each time.

Turning to `COc1cc(N2C(=O)Nc3c(C(=O)Nc4ccc(CCN5CCOCC5)cc4)sc4ncc(C#N)c2c34)c(Cl)cc1Cl` [Cpd 6, 6-cyano-5-(2,4-dichloro-5-methoxy-phenyl)-4-oxo-4,5-dihydro-3H-1-thia-3,5,8-triaza-acenaphthylene-2-carboxylic acid [4-(2-morpholin-4-yl-ethyl)-phenyl]-amide], the half-inhibitory concentration (IC50) is greater than 10 µM at Aurora-A and greater than 100 µM at VEGF-R2. For the same compound, at Lyn kinase, the inhibition at 2 µM stood at 75%.

Turning to `COC1CCN(Cc2ccc(NC(=O)c3sc4ncc(C#N)c5c4c3NC(=O)N5c3c(Cl)ccc4c3OCO4)cc2)CC1` [Cpd 18, 5-(5-chloro-benzo[1,3]dioxol-4-yl)-6-cyano-4-oxo-4,5-dihydro-3H-1-thia-3,5,8-triaza-acenaphthylene-2-carboxylic acid [4-(4-methoxy-piperidin-1-ylmethyl)-phenyl]-amide], the IC50 against Aurora-A was greater than 1 µM; against VEGF-R2, greater than 10 µM. Besides, the inhibition at 2 µM at Lyn kinase was found to be 86%.

For `CC1CCN(Cc2ccc(NC(=O)c3sc4ncc(C#N)c5c4c3NC(=O)N5c3c(Cl)ccc4c3OCO4)cc2)CC1` [Cpd 19, 5-(5-chloro-benzo[1,3]dioxol-4-yl)-6-cyano-4-oxo-4,5-dihydro-3H-1-thia-3,5,8-triaza-acenaphthylene-2-carboxylic acid [4-(4-methyl-piperidin-1-ylmethyl)-phenyl]-amide], the inhibition at 1 µM at Aurora-A (test concentration of 1 μM, read-out: Aurora-A percent inhibition) stood at 9%. Further, the IC50 on VEGF-R2 is greater than 100 µM.

Turning to `Cc1nc2sc(C(=O)Nc3ccc(CN4CCOCC4)cc3)c3c2c(c1C#N)N(c1c(Cl)ccc2c1OCO2)C(=O)N3` [Cpd 9, 5-(5-chloro-benzo[1,3]dioxol-4-yl)-6-cyano-7-methyl-4-oxo-4,5-dihydro-3H-1-thia-3,5,8-triaza-acenaphthylene-2-carboxylic acid (4-morpholin-4-ylmethyl-phenyl)-amide], the IC50 against Aurora-A is greater than 1 µM; at VEGF-R2 it was greater than 10 µM. Moreover, the inhibition at 2 µM at Lyn kinase was found to be 58%.
